In patent US9066938B2, “GPBP-1 inhibition and its therapeutic use” (Fibrostatin S.L., priority 2012, dated 2015):

system: A549 cells; assay: not given; format: cell-based; settings: 50 μM
Method: FIG. 2. […] Cells were seeded in 96-well plates and treated with the indicated compound combinations. The cellular viability (cell number) was measured with alamarBlue® and arbitrary units of fluorescence after 36 h of treatment (vertical axis).
FIG. 7. […] A549 cells were seeded on 96-well culture plates and after 4 h were treated with the indicated concentrations of doxorubicin in absence or presence of T12 (50 μM) and/or CFTR-inhibitor-172 (25 μM). Cells were cultured for additional 36 h and cell viability assessed as in FIG. 2.
A549 human lung adenocarcinoma cancer cells (CLS Cell Lines Service) were used as an ex vivo model for the assessment of anti-tumor activity of specific compounds. Unless otherwise indicated A549 cells were cultured in DMEM: Ham's F12 medium supplemented with 2 mM L-glutamine and 10% fetal bovine serum. A549 cells resistant to doxorubicin (A549-DR) were obtained treating cells with 1 μM for 4 weeks. A549 cells were transfected with a plasmid that expresses GPBP-1 and further selected with G418 (Invitrogen) to obtain a cell line (A549-GPBP) that constitutively expresses GPBP-1.
Cytotoxicity assays were performed with alamarBlue® reagent (Invitrogen) according to manufacturer's instructions. A549 cells were seeded on 96-well culture plates (7,500 cells/well) and allowed to settle during 4 h. Then, cells were cultured with individual peptidomimetics at concentrations ranging from 0 to 50 μM, in presence of doxorubicin at concentrations ranging from 0 to 10 μM for 36 h. JLSM cells were harvested by treatment with 0.25% trypsin (Lonza) and plated on collagen I coated 96-well black culture plate (Perkin Elmer) at a density of 10.000 cells per cm^2. After 4 h settling, cells were treated with different peptidomimetics (with or without doxorubicin) for 36 h. Subsequently alamarBlue® reagent was added and incubation maintained for 3 h. Fluorescence was measured using 560EX nm/590EM nm filter settings with a SpectraMax GeminiXPS (Molecular Devices). Blank wells containing media were used to determine background fluorescence.
The activity shown for each compound in Table 1 is the factor by which doxorubicin LC50 is reduced by the compound at a 50-μM concentration in A549 cell cultures. […] The symbols −, −/+, +, ++, +++, ++++ in the third column are used to show relative activities of compounds in a simplified way.

| Molecule | toxicity of the compound by itself in A549 cultures |
| --- | --- |
| CCCOc1ccc(-c2ccc(-c3cccc(C(F)(F)F)c3)c(C)c2)c(CCC(=O)O)c1 [24c] | significantly toxic |
| CCOC(=O)CCc1cc(O)ccc1-c1ccc(-c2cccnc2)c(CO)c1 [13c] | significantly toxic |
| CCCOc1ccc(-c2ccc(-c3cccc(C)c3)c(C)c2)c(CCC(=O)O)c1 [24a] | significantly toxic |

same assay, conditions: CFTR-inhibitor-172 25 μM, T12 50 μM, 36 h

| Molecule | cell viability in cultures treated with T12 with or without doxorubicin |
| --- | --- |
| O=C(O)c1ccc(C=C2SC(=S)N(c3cccc(C(F)(F)F)c3)C2=O)cc1 [CFTR/ABCC7 inhibitor 172, 3-[(3-Trifluoromethyl)phenyl]-5-[(4-carboxyphenyl)methylene]-2-thioxo-4-thiazolidinone, reference compound] | significantly reduced cell viability |

same assay, conditions: compound at 10 μM, A549 cell cultures

| Molecule | Activity as enhancer of doxorubicin-induced cell death, relative activity symbol |
| --- | --- |
| CCCOc1ccc(-c2ccc(-c3cccc(C(F)(F)F)c3)c(C)c2)c(CCC(=O)O)c1 [24c] | ++ |
| CCOC(=O)CCc1cc(O)ccc1-c1ccc(-c2cccnc2)c(CO)c1 [13c] | + |

same assay, conditions: compound at 25 μM, A549 cell cultures

| Molecule | Activity as enhancer of doxorubicin-induced cell death, relative activity symbol |
| --- | --- |
| COc1ccc(-c2ccc(-c3ccc(OC)c(Cl)c3)c(C)c2)c(CCC(=O)O)c1 [T55] | ++++ |
| CCCOc1ccc(-c2ccc(-c3cccc(C)c3)c(C)c2)c(CCC(=O)O)c1 [24a] | ++ |

same assay, conditions: compound at 50 μM, A549 cell cultures

| Molecule | Activity as enhancer of doxorubicin-induced cell death, relative activity symbol |
| --- | --- |
| O=C(O)CCc1cc(O)ccc1-c1ccc(-c2cccnc2)c(C(F)F)c1 | + |
| O=C(O)CCc1cc(O)ccc1-c1ccc(-c2cccc(C(F)(F)F)c2)c(CO)c1 | − |
| Cc1cc(-c2ccc(O)cc2CCC(=O)O)ccc1-c1cccc(C(F)(F)F)c1 | + |
| COc1ccc(-c2ccc(-c3cccc(C)c3)c(CO)c2)c(CCC(=O)O)c1 | −/+ |
| COc1ccc(-c2ccc(-c3cccnc3)c(CO)c2)c(CCC(=O)O)c1 | − |
| CCCCCCCCCCCCCCCC(=O)Oc1ccc(-c2ccc(-c3cccc(C)c3)c(C)c2)c(CCC(=O)O)c1 | − |
| Cc1cccc(-c2ccc(-c3ccc(O)cc3CCC(=O)O)cc2CF)c1 | ++ |
| COc1ccc(-c2ccc(-c3cccnc3)c(C)c2)c(CCC(=O)O)c1 | ++++ |
| O=C(O)CCc1cc(O)ccc1-c1ccc(-c2cccnc2)c(CO)c1 | + |
| Cc1cccc(-c2ccc(-c3ccc(OCC(=O)O)cc3CCC(=O)O)cc2C)c1 | − |
| O=C(O)CCc1cc(O)ccc1-c1ccc(-c2cccc(C(F)(F)F)c2)c(C(F)F)c1 | ++ |
| Cc1cccc(-c2ccc(-c3ccc(O)cc3CCC(=O)O)cc2C(F)F)c1 | ++ |
| Cc1cccc(-c2ccc(-c3ccc(O)cc3CCC(=O)O)cc2CO)c1 | −/+ |
| COc1ccc(-c2ccc(-c3ccc(OC)c(C)c3)c(C)c2)c(CCC(=O)O)c1 | ++++ |
| COc1ccc(-c2ccc(-c3cccc(C(F)(F)F)c3)c(CO)c2)c(CCC(=O)O)c1 | + |
| Cc1cccc(-c2ccc(-c3ccc(O)cc3CCC(=O)O)cc2C)c1 | ++ |
| Cc1cccc(-c2ccc(-c3ccc(O)cc3C(C)C)cc2CCC(=O)O)c1 | + |
| CCOC(=O)CCc1cc(O)ccc1-c1ccc(-c2cccc(C(F)(F)F)c2)c(C)c1 | −? |
| O=C(O)CCc1cc(O)ccc1-c1ccc(-c2cccc(C(F)(F)F)c2)c(CF)c1 | ++++ |
| O=C(O)CCc1cc(O)ccc1-c1ccc(-c2cccnc2)c(CF)c1 | + |
| C[n+]1cccc(-c2ccc(-c3ccc(O)cc3CCC(=O)[O-])cc2CO)c1 | − |
| COc1ccc(-c2ccc(-c3cccc(C(F)(F)F)c3)c(C)c2)c(CCC(=O)O)c1 | +++ |
| Cc1cccc(-c2ccc(-c3ccc(O)cc3CCO)cc2CCC(=O)O)c1 | + |
| COc1ccc(-c2ccc(-c3cccnc3)c(CF)c2)c(CCC(=O)O)c1 | +++ |

system: CSC derived from a uterine cancer; assay: Sensitivity of CSC derived from a uterine cancer; format: cell-based; settings: data not shown

| Molecule | sensitivity of uterine cancer CSC to the compound |
| --- | --- |
| COc1ccc(-c2ccc(-c3ccc(OC)c(Cl)c3)c(C)c2)c(CCC(=O)O)c1 [T55] | highly sensitive |

target: T1, human recombinant GPBP-1 (Homo sapiens, UniProt Q9Y5P4); assay: not given; settings: Saus et al. 2008, 2010; cited from earlier work
T1 construct: made in house; host or cells: Pichia pastoris
T1 sequence (Q9Y5P4 1-624): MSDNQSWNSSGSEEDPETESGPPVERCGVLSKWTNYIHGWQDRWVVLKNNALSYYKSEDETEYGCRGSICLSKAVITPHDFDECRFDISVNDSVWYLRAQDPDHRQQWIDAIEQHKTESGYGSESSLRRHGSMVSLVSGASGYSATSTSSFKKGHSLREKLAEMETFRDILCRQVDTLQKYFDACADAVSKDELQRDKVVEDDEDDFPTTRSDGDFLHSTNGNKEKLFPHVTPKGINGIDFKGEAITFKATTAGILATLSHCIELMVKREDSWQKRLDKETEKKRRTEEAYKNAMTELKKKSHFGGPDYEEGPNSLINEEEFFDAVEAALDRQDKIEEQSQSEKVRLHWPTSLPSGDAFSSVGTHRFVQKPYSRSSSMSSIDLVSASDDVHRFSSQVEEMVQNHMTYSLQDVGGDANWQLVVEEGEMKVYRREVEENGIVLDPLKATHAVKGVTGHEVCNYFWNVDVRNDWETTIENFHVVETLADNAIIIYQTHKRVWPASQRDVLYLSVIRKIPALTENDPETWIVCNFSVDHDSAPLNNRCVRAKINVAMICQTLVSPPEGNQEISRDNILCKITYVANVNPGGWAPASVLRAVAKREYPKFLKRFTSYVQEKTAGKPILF

| Molecule | inhibition of GPBP-1 kinase activity |
| --- | --- |
| LATLSHCIELMVKR (SEQ ID NO: 8) [Q2, isolated peptide representing 260SHCIE264 and flanking regions of GPBP-1] | efficiently inhibits |
